Measurements reported in BindingDB's records for patent US20250313563 (The Broad Institute, 2025).
Values joined by “and” are separate entries in the source; they are usually repeats but may differ in a detail not shown here. Identical values can stand only once.

Key:
[1] = molecular target: Glycogen synthase kinase-3 beta (Homo sapiens, UniProt P49841); assay: TR-FRET Assay
Method: (§1) The assay was performed in a white, 384 well, low volume, flat bottom plate (Grenier). […] The kinase activity was quenched with 2 μL of 250 mM EDTA. A 10 μL volume of 40 nM Strepavidin-d2, 2 nM Tb2+-pSer641 antibody in TR-FRET Detection Buffer (Invitrogen) was then added.

[2] = molecular target: Glycogen synthase kinase-3 alpha (Homo sapiens, UniProt P49840); assay: TR-FRET Assay
Glycogen synthase kinase-3 alpha, sequence (P49840 whole entry): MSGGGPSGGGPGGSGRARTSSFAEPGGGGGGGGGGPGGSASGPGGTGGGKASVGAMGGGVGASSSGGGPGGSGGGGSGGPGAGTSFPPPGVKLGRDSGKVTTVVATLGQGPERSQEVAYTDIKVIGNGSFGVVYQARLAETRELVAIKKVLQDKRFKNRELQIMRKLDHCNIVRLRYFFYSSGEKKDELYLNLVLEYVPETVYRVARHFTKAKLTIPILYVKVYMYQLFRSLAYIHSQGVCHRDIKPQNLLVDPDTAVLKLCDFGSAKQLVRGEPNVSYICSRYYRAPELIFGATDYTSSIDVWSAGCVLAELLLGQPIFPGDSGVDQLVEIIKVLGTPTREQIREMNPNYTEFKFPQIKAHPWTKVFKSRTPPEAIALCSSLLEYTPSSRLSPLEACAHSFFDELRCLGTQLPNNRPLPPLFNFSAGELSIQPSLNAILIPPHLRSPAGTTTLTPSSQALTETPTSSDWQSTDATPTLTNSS
Method: as §1

Glycogen synthase kinase-3 beta, sequence (P49841 whole entry): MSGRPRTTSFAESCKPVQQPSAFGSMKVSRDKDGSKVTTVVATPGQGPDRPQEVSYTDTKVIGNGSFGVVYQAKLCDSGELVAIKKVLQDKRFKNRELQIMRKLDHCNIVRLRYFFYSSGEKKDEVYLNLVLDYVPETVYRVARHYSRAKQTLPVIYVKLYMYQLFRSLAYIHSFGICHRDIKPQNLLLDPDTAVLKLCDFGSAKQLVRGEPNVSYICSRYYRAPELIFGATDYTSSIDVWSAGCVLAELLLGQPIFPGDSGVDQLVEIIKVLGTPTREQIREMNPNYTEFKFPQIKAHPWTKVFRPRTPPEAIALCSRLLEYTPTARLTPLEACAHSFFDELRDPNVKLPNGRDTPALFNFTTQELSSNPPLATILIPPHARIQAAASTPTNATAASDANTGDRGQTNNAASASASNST

Structure (SMILES) | IC50 [1] | IC50 [2]
CCC1(c2cccc(-c3c(C)cnn3C)c2)C2=CN=NC2NC2=C1C(=O)CC(C)(C)C2 (stereo unspecified) [US20250313563, Compound 947491] | < 100 nM | < 100 nM
CC[C@]1(c2cccc(-c3ccnc(C)c3)c2)C2=CN=NC2NC2=C1C(=O)N[C@H](C)C2 (stereo partly specified) [US20250313563, Compound 926212] | 1000 to 5000 nM | < 100 nM
Cc1ccc(C(=O)N2CC3(C2)CC2(CO3)C3=C(N=NC3)NC3=C2C(=O)CC(C)(C)C3)c(C)c1 (stereo unspecified) [US20250313563, Compound 947294] | 100 to 1000 nM | < 100 nM
CC[C@]1(c2cccc(-c3ccnc4ccccc34)c2)C2=CN=NC2NC2=C1C(=O)CC(C)(C)C2 (stereo partly specified) [US20250313563, Compound 944034] | > 5000 nM | > 5000 nM
CC1(C)CC(=O)C2=C(C1)NC1=C(CN=N1)[C@]2(C)c1cccc(-c2ccccc2)c1 [US20250313563, Compound 801367] | 100 to 1000 nM | < 100 nM
CCC1(c2cccc(N(C)C(=O)CN3CCCC3)c2)C2=CN=NC2NC2=C1C(=O)CC(C)(C)C2 (stereo unspecified) [US20250313563, Compound 909202] | 1000 to 5000 nM | 100 to 1000 nM
CC1(C)CC(=O)C2=C(C1)NC1=C(CN=N1)C21CCC(c2ccccc2)CC1 (stereo unspecified) [US20250313563, Compound 874975] | < 100 nM | < 100 nM
CC1(C)CC(=O)C2=C(C1)NC1=C(CN=N1)C21CCN(S(=O)(=O)c2ccc(F)c(F)c2)CC1 [US20250313563, Compound 948119] | < 100 nM | < 100 nM
CC1(C)CC(=O)C2=C(C1)NC1=C(CN=N1)C21COC2(CN(C(=O)C3CCC(F)CC3)C2)C1 (stereo unspecified) [US20250313563, Compound 947267] | 100 to 1000 nM | < 100 nM
CCN1CC2(C1)C1=C(N=NC1)NC1=C2C(=O)CC(C)(C)C1 [US20250313563, Compound 929448] | > 5000 nM | > 5000 nM
CCC1(c2cccc(CN3CCCCC3)c2)C2=CN=NC2NC2=C1C(=O)CC(C)(C)C2 (stereo unspecified) [US20250313563, Compound 819560] | > 5000 nM | 1000 to 5000 nM
CC[C@@]1(c2ccccc2)C2=CN=NC2NC2=C1C(=O)C[C@]1(CCN(C)C1=O)C2 (stereo partly specified) [US20250313563, Compound 949753] | > 5000 nM | 1000 to 5000 nM
CC[C@]1(c2cccc(-c3ccnc(C)c3)c2)C2=CN=NC2NC2=C1C(=O)CC(C)(C)[C@H]2F (stereo partly specified) [US20250313563, Compound 946103] | 1000 to 5000 nM | 100 to 1000 nM
Cn1cc([C@H]2CC[C@@]3(CC2)C2=C(N=NC2)NC2=C3C(=O)CC(C)(C)C2)cn1 [US20250313563, Compound 949323] | > 5000 nM | 1000 to 5000 nM
CC1(C)CC(=O)C2=C(C1)NC1=C(CN=N1)C21CCN(S(=O)(=O)c2cccc3c2CCCC3)CC1 [US20250313563, Compound 947470] | < 100 nM | < 100 nM
CC[C@]1(c2cccc(S(=O)(=O)C(C)C)c2)C2=C(CC(C)(C)NC2=O)NC2N=NC(C(F)(F)F)=C21 (stereo partly specified) [US20250313563, Compound 948419] | < 100 nM | < 100 nM
CC[C@]1(c2ccccc2)C2=CN=NC2NC2=C1C(=O)[C@@H](F)C(C)(C)C2 (stereo partly specified) [US20250313563, Compound 826769] | > 5000 nM | > 5000 nM
CC[C@]1(c2cccc(N3CCOCC3)c2)C2=CN=NC2NC2=C1C(=O)CC(C)(C)C2 (stereo partly specified) [US20250313563, Compound 810364] | > 5000 nM | > 5000 nM
CC[C@@]1(c2cccc(C(F)(F)F)c2)C2=CN=NC2NC2=C1C(=O)NCC2 (stereo partly specified) [US20250313563, Compound 912668] | > 5000 nM | > 5000 nM

Structure (SMILES) | IC50 [1] | IC50 [2]
CC(C)(C)CC(=O)N1CC2(C1)CC1(CO2)C2=C(N=NC2)NC2=C1C(=O)CC(C)(C)C2 (stereo unspecified) [US20250313563, Compound 947301] | 1000 to 5000 nM | 100 to 1000 nM
CC1(C)CC(=O)C2=C(C1)NC1=C(CN=N1)[C@@]21COC2(CCC2)C1 [US20250313563, Compound 917129] | 100 to 1000 nM | 100 to 1000 nM
Cn1ccc(S(=O)(=O)N2CCC3(CC2)C2=C(N=NC2)NC2=C3C(=O)CC(C)(C)[C@H]2F)n1 [US20250313563, Compound 951709] | 100 to 1000 nM | < 100 nM
CC[C@]1(c2cccc(-c3ccnn3C)c2)C2=CN=NC2NC2=C1C(=O)N[C@@]1(CCOC1)C2 (stereo partly specified) [US20250313563, Compound 948017] | < 100 nM | < 100 nM
CC1(C)CC(=O)C2=C(C1)NC1=C(CN=N1)[C@@]21CCOC2(CCOCC2)C1 [US20250313563, Compound 924306] | 100 to 1000 nM | 100 to 1000 nM
CC[C@]1(c2cccc(-c3cn(C)nc3C)c2)C2=C(CC(C)(C)CC2=O)NC2N=NC(C)=C21 (stereo partly specified) [US20250313563, Compound 913035] | < 100 nM and 100 to 1000 nM | < 100 nM
CC[C@]1(c2cccc(C(F)F)c2)C2=C(CC(C)(C)NC2=O)NC2N=NC(C(F)(F)F)=C21 (stereo partly specified) [US20250313563, Compound 951946] | 1000 to 5000 nM | 100 to 1000 nM
CC[C@]1(c2cccc(C(F)(F)F)c2)C2=CN=NC2NC2=C1C(=O)N(c1cn(C)c(C)n1)CC2 (stereo partly specified) [US20250313563, Compound 952478] | > 5000 nM | 1000 to 5000 nM
CC[C@]1(c2cccc(C(C)C)c2)C2=CN=NC2NC2=C1C(=O)NC(C)(C)C2 (stereo partly specified) [US20250313563, Compound 949761] | 100 to 1000 nM | 100 to 1000 nM
CC[C@@]1(c2cccc(N3C[C@@H](C)[C@H](C)C3)c2)C2=CN=NC2NC2=C1C(=O)CC(C)(C)C2 (stereo partly specified) [US20250313563, Compound 924543] | > 5000 nM | 1000 to 5000 nM
CC[C@]1(c2cccc(CN(C)c3ccc(C(F)(F)F)nc3)c2)C2=CN=NC2NC2=C1C(=O)CC(C)(C)C2 (stereo partly specified) [US20250313563, Compound 945484] | > 5000 nM | > 5000 nM
CC[C@]1(c2cccc(-c3ccnn3C)c2)C2=C(CC(C)(C)CC2=O)NC2N=NC(C(F)(F)F)=C21 (stereo partly specified) [US20250313563, Compound 947365] | 1000 to 5000 nM | 100 to 1000 nM
CCC1(c2cccc(-c3cc(C)ncc3F)c2)C2=CN=NC2NC2=C1C(=O)NC(C)(C)C2 (stereo unspecified) [US20250313563, Compound 947401] | 100 to 1000 nM and > 5000 nM | < 100 nM and 100 to 1000 nM
CC1(C)CC(=O)C2=C(C1)NC1=C(CN=N1)C21CCN(S(=O)(=O)C2CCOCC2)CC1 [US20250313563, Compound 913127] | < 100 nM and 100 to 1000 nM | < 100 nM
CC1(C)CC(=O)C2=C(C1)NC1=C(CN=N1)C21CN(S(=O)(=O)c2cccnc2)C1 [US20250313563, Compound 913265] | > 5000 nM | > 5000 nM
CC[C@]1(c2cccc(C(F)(F)F)c2)C2=C(CC(C)(C)NC2=O)NC2N=NC(F)=C21 (stereo partly specified) [US20250313563, Compound 957518] | 100 to 1000 nM | < 100 nM
CC[C@]1(c2ccccc2)C2=CN=NC2NC2=C1C(=O)[C@H](C)C[C@@H]2C (stereo partly specified) [US20250313563, Compound 909216] | 100 to 1000 nM | 100 to 1000 nM
CC1(C)CC(=O)C2=C(C1)NC1=C(CN=N1)C21CCN(S(=O)(=O)c2cccc(C(F)(F)F)c2)CC1 [US20250313563, Compound 947244] | < 100 nM | < 100 nM
CCC1(c2cccc(-c3ccnc(C)c3)c2)C2=C(N=NC2)NC2=C1C(=O)C(C)(C)C2 (stereo unspecified) [US20250313563, Compound 949840] | 1000 to 5000 nM | 100 to 1000 nM
